Measured values published in the supplement of paper PMC10331698.
± gives the standard deviation of the averaged measurements.

Experiments:
Assay in all cases: level (log10 ratio to DMSO vehicle control); higher = higher biomarker level / cell amount than vehicle control
Details in all cases: in DMSO
Perfluoro-1-iodohexane = compound: FC(F)(F)C(F)(F)C(F)(F)C(F)(F)C(F)(F)C(F)(F)I [Perfluoro-1-iodohexane]
Protocol: (§1)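 BioMAP Diversity Plus panel of 12 human primary cell co-culture systems (3C, 4H, LPS, SAg, BT, BF4T, BE3C, CASM3C, HDF3CGF, KF3CT, MyoF, Mphg). Compounds were added 1 h before stimulation and left for 24 h (MyoF 48 h; BT 72 h for soluble read-outs or 6 d for IgG). Biomarkers were read by ELISA, cytotoxicity by SRB, PBMC viability and proliferation by Alamar Blue. Each well value was divided by the mean of 8 DMSO control wells on the same plate and log10 transformed; duplicate blinded samples were tested at 4 concentrations.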

[1] = compound: O=C(O)C(F)(F)C(F)(F)OC(F)(F)F [Perfluoro-3-methoxypropanoic acid]
Protocol: as §1

[2] = compound: O=C(O)C(F)(F)C(F)(F)C(F)(F)OC(F)(C(F)(F)F)C(F)(F)F [Perfluoro-4-isopropoxybutanoic acid]
Protocol: as §1

[3] = compound: C=CC(=O)OCC(F)(F)C(F)(F)C(F)(F)C(F)(F)C(F)(F)C(F)(F)C(F)(F)F [1H,1H-Perfluorooctyl acrylate]
Protocol: as §1

Perfluorodecanoic acid = compound: O=C(O)C(F)(F)C(F)(F)C(F)(F)C(F)(F)C(F)(F)C(F)(F)C(F)(F)C(F)(F)C(F)(F)F [Perfluorodecanoic acid]
Protocol: as §1

[4] = compound: FC(F)(F)C(F)(F)C(F)(F)C(F)(F)C(F)(F)C(F)(F)C(F)(F)C(F)(F)CCS [2-(Perfluorooctyl)ethanthiol]
Protocol: as §1

[5] = compound: O=S(=O)(O)C(F)(F)C(F)(F)C(F)(F)C(F)(F)C(F)(F)C(F)(F)F [Perfluorohexanesulfonic acid]
Protocol: as §1

Row | Test System | level (log10) (Perfluoro-1-iodohexane; 6700 nM) | level (log10) (Perfluoro-1-iodohexane; 20000 nM) | level (log10) (Perfluoro-1-iodohexane; 60000 nM) | level (log10) ([1]; 6700 nM) | level (log10) ([1]; 20000 nM) | level (log10) ([1]; 60000 nM) | level (log10) ([2]; 6700 nM) | level (log10) ([2]; 20000 nM) | level (log10) ([2]; 60000 nM) | level (log10) ([3]; 6700 nM) | level (log10) ([3]; 20000 nM) | level (log10) ([3]; 60000 nM) | level (log10) (Perfluorodecanoic acid; 6700 nM) | level (log10) (Perfluorodecanoic acid; 20000 nM) | level (log10) ([4]; 6700 nM) | level (log10) ([4]; 20000 nM) | level (log10) ([5]; 6700 nM) | level (log10) ([5]; 20000 nM) | level (log10) ([5]; 60000 nM)
1 | lMphg:CCL2/MCP-1 | -0.021 ± 0.0099 | 0.0145 ± 0.032 | -0.003 ± 0.025 | -0.0175 ± 0.025 | -0.0225 ± 0.029 | -0.0075 ± 0.028 | -0.018 ± 0.0042 | -0.0185 ± 0.0092 | 0.0175 ± 0.0078 | -0.0065 ± 0.039 | -0.016 ± 0.0057 | 0.002 ± 0.03 | 0.001 ± 0.0042 | 0.0095 ± 0.023 | -0.0125 ± 0.0078 | -0.003 ± 0.02 | -0.014 ± 0.0085 | 0.006 ± 0.037 | 0.054 ± 0.024
2 | lMphg:CCL3/MIP-1alpha | 0.033 ± 0.031 | 0.023 ± 0.0042 | 0.0285 ± 0.033 | -0.0175 ± 0.012 | -0.053 ± 0.0071 | -0.0175 ± 0.019 | -0.035 ± 0.0085 | -0.0355 ± 0.029 | -0.005 ± 0.037 | 0.0215 ± 0.028 | 0.04 ± 0.0071 | 0.057 ± 0.0099 | 0.004 ± 0.013 | -0.0125 ± 0.049 | -0.019 ± 0.014 | -0.027 ± 0.014 | -0.006 ± 0.04 | 0.0055 ± 0.037 | 0.045 ± 0.034
3 | lMphg:CD40 | -0.011 ± 0.0071 | -0.0265 ± 0.0035 | -0.0375 ± 0.013 | -0.0295 ± 0.03 | -0.0165 ± 0.0021 | -0.0225 ± 0.04 | -0.012 ± 0.013 | -0.041 ± 0.034 | -0.027 ± 0.035 | -0.0125 ± 0.049 | -0.0125 ± 0.097 | -0.0635 ± 0.039 | -0.0025 ± 0.039 | -0.0385 ± 0.05 | 0.0035 ± 0.086 | 0.017 ± 0.048 | -0.0205 ± 0.037 | 0.019 ± 0.011 | 0.0045 ± 0.011
4 | lMphg:CD62E/E-Selectin | 0.005 ± 0.0042 | 0.018 ± 0.02 | 0.0305 ± 0.033 | -0.012 ± 0.018 | -0.037 ± 0.03 | 0.019 ± 0.075 | -0.011 ± 0.027 | 0.007 ± 0.038 | 0.0005 ± 0.039 | -0.0075 ± 0.023 | 0.004 ± 0.017 | -0.004 ± 0.021 | -0.026 ± 0.0028 | -0.0135 ± 0.011 | -0.013 ± 0.013 | -0.0295 ± 0.011 | 0.0145 ± 0.00071 | 0.019 ± 0.0099 | 0.0955 ± 0.035
5 | lMphg:CD69 | -0.031 ± 0.048 | -0.0425 ± 0.06 | -0.031 ± 0.045 | -0.0495 ± 0.043 | -0.0005 ± 0.026 | 0.017 ± 0.04 | -0.044 ± 0.014 | -0.069 ± 0.021 | -0.0455 ± 0.054 | -0.0255 ± 0.012 | -0.016 ± 0.033 | -0.0135 ± 0.013 | -0.013 ± 0.054 | -0.055 ± 0.052 | -0.0425 ± 0.039 | -0.069 ± 0.045 | -0.007 ± 0.027 | 0.007 ± 0.04 | -0.036 ± 0.018
6 | lMphg:CD106/VCAM-1 | 0.0085 ± 0.032 | -0.0035 ± 0.018 | -0.003 ± 0.0099 | -0.0005 ± 0.035 | -0.0035 ± 0.021 | -0.0235 ± 0.0035 | -0.0135 ± 0.013 | 0.0015 ± 0.028 | 0.014 ± 0.0057 | -0.0115 ± 0.022 | -0.001 ± 0.018 | -0.0145 ± 0.037 | 0.004 ± 0.0014 | -0.0145 ± 0.053 | -0.0055 ± 0.0064 | -0.0365 ± 0.011 | -0.011 ± 0.044 | 0.0075 ± 0.0035 | 0.005 ± 0.011
7 | lMphg:CXCL8/IL-8 | -0.0075 ± 0.039 | 0.0325 ± 0.016 | 0.0585 ± 0.064 | -0.03 ± 0.065 | -0.0275 ± 0.025 | -0.001 ± 0.044 | 0.02 ± 0.042 | 0.066 ± 0.038 | 0.164 ± 0.0035 | 0.0185 ± 0.005 | 0.029 ± 0.0071 | 0.0295 ± 0.005 | 0.0415 ± 0.049 | 0.04 ± 0.023 | -0.012 ± 0.016 | 0.008 ± 0.016 | 0.029 ± 0.11 | 0.052 ± 0.088 | 0.169 ± 0.18
8 | lMphg:IL-1alpha | 0.008 ± 0.0057 | 0.0525 ± 0.019 | 0.027 ± 0.011 | -0.008 ± 0.03 | -0.0055 ± 0.033 | 0.0115 ± 0.005 | -0.005 ± 0.0057 | 0.0045 ± 0.005 | 0.009 ± 0.028 | 0.0115 ± 0.022 | 0.002 ± 0.038 | 0.0155 ± 0.037 | 0.0085 ± 0.0078 | 0.013 ± 0.02 | -0.033 ± 0.078 | -0.0355 ± 0.07 | 0.023 ± 0.095 | 0.012 ± 0.047 | 0.0305 ± 0.063
9 | lMphg:M-CSF | -0.0095 ± 0.0035 | -0.032 ± 0.016 | 0.0085 ± 0.026 | -0.0075 ± 0.012 | -0.025 ± 0.0071 | -0.0025 ± 0.037 | -0.016 ± 0.0028 | -0.0185 ± 0.015 | 0.016 ± 0.0085 | 0.015 ± 0.0028 | -0.0245 ± 0.023 | -0.027 ± 0.034 | 0.019 ± 0.021 | 0.0105 ± 0.037 | -0.0075 ± 0.023 | 0.012 ± 0.0028 | -0.0105 ± 0.033 | 0.0005 ± 0.011 | 0.0135 ± 0.022
10 | lMphg:SRB | -0.0055 ± 0.00071 | -0.0025 ± 0.0035 | 0.0035 ± 0.0078 | -0.006 ± 0.0014 | -0.0185 ± 0.005 | 0 ± 0.0028 | -0.003 ± 0.0071 | -0.0035 ± 0.005 | -0.009 ± 0.023 | -0.006 ± 0.0071 | -0.013 ± 0.016 | -0.0035 ± 0.012 | 0.009 ± 0.0085 | 0.004 ± 0.0057 | -0.008 ± 0.0014 | -0.011 ± 0.013 | -0.016 ± 0.037 | -0.0045 ± 0.0078 | -0.0265 ± 0.029
11 | lMphg:SRB-Mphg | 0.002 ± 0.0057 | -0.006 ± 0.0028 | 0.0025 ± 0.029 | -0.007 ± 0.02 | -0.0165 ± 0.019 | -0.022 ± 0.025 | -0.0085 ± 0.012 | -0.0025 ± 0.005 | -0.019 ± 0.0028 | -0.002 ± 0.011 | -0.0015 ± 0.0078 | 0.0045 ± 0.018 | 0.0065 ± 0.00071 | -0.005 ± 0.0085 | 0.007 ± 0.0057 | 0.0105 ± 0.018 | 0.0015 ± 0.074 | 0.013 ± 0.0071 | 0.0255 ± 0.018
12 | lMphg:sIL-10 | -0.0575 ± 0.1 | -0.048 ± 0.0042 | -0.047 ± 0.0057 | -0.0385 ± 0.013 | -0.064 ± 0.024 | -0.0485 ± 0.044 | -0.116 ± 0.018 | -0.04 ± 0.047 | -0.187 ± 0.031 | 0.018 ± 0.02 | -0.023 ± 0.05 | -0.0565 ± 0.042 | -0.018 ± 0.055 | -0.036 ± 0.028 | -0.122 ± 0.065 | 0.0325 ± 0.046 | -0.0345 ± 0.061 | -0.073 ± 0.1 | -0.239 ± 0.025
